# Values of other authors in US10113000B2, “Combination therapies for B-cell lymphomas comprising administration of anti-CD20 antibody” (BIOGEN INC., priority 1998, dated 2018).
# B1: IL-4: cytokine (protein, UniProt P05112 25-153, looked up)
# Interleukin-4: HKCDITLQEIIKTLNSLTEQKTLCTELTVTDIFAASKNTTEKETFCRAATVLRQFYSHHEKDTRCLGATAQQFHRHKQLIRFLKRLDRNLWGLAGLNSCPVKEANQSTLENFLERLKTIMREKYSKCSS
# Experiments:
# [1] = system: mononuclear cells from CLL patients; conditions: incubated for 24 hours
# [2] = system: multiple myeloma (MM) patient plasma cells
Molecule,CD20 expression by flow cytometry [1],"binding of cells to Rituximab ([2]; MM plasma cells, patient B-cells, normal donor B-cells)",concentration at which plateau of CD20 induction occurred ([2]; at 48 hours) [U/ml],"concentration at which CD20 upregulation is seen ([2]; plasma cells, dose dependent) [U/ml]"
GM-CSF: cytokine,significant up-regulation,,,
TNF-alpha,significant up-regulation,,,
gamma-interferon: cytokine,,augments binding,100,1
B1,significant up-regulation,,,
